Test [1] concerns p-ERK in NCI-H358 cells (K-Ras G12C). The experiment in a line: Phospho-ERK1/2(THR202/TYR204) HTRF assay, NCI-H358. Format: cell-based. Particulars: Homo sapiens, 2 hours incubation.
Test [2] relates to NCI-H358 cells (K-Ras G12C).
Test [3] has as its system p-ERK in NCI-H747 cells (K-Ras G13D).
Test [4] concerns SW620 cells (K-Ras G12V). Kind of test: 2D cell growth inhibition assay, SW620. Particulars: Homo sapiens, SW-620, 144 h, 6 days, absolute IC50. Format: cell-based.
Test [5] has as its system p-ERK in MKN-1 cells (K-Ras WT amplification). The experiment in a line: Phospho-ERK1/2(THR202/TYR204) HTRF assay, MKN-1. Format: cell-based. The note with it: Homo sapiens; MKN-1, K-Ras WT, 2 hours incubation. (In general: TR-FRET usually uses a lanthanide donor and a delayed reading to cut background.)
In test [6] the test system is TCC-PAN2 cells (K-Ras G12R). The experiment in a line: 3D cell growth inhibition assay, TCC-PAN2. Type of test: cell-based. Particulars: 144 h, 6 days, absolute IC50.
In test [7] the test system is p-ERK in SW620 cells (K-Ras G12V). The experiment in a line: Phospho-ERK1/2(THR202/TYR204) HTRF assay, SW620. The note with it: Homo sapiens, SW-620, 2 h, 2 hours incubation. Type of test: cell-based.
Test [8] concerns NCI-H460 cells (K-Ras Q61H). The experiment in a line: 3D cell growth inhibition assay, NCI-H460. Type of test: cell-based. The note with it: Homo sapiens, 144 h, 6 days, absolute IC50.
In test [9] the test system is RERF-LC-Ad1 cells (K-Ras G12A).
Test [10] deals with AsPC-1 cells (K-Ras G12D). Kind of test: 2D cell growth inhibition assay, AsPC-1. Format: cell-based. The note with it: Homo sapiens, ASPC1, 144 h, AsPC-1, K-Ras G12D, 6 days, absolute IC50.
Test [11] has as its system MKN-1 cells (K-Ras WT). Kind of test: 3D cell growth inhibition assay, MKN-1. The note with it: Homo sapiens, 144 h, MKN-1, K-Ras WT, 6 days, absolute IC50. Format: cell-based.
Test [12] concerns AGS cells (K-Ras G12D). The experiment in a line: 2D cell growth inhibition assay, AGS. Type of test: cell-based. The note with it: Homo sapiens, 144 h, 6 days, absolute IC50.
The subject of test [13] is p-ERK in NCI-H460 cells (K-Ras Q61H). Kind of test: Phospho-ERK1/2(THR202/TYR204) HTRF assay, NCI-H460. Format: cell-based. The note with it: Homo sapiens, 2 hours incubation.
Test [14] relates to p-ERK in AGS cells (K-Ras G12D). The experiment in a line: Phospho-ERK1/2(THR202/TYR204) HTRF assay, AGS. Type of test: cell-based. Particulars: Homo sapiens, 2 h, 2 hours incubation.
The test system of test [15] is NCI-H747 cells (K-Ras G13D).
The subject of test [16] is p-ERK in TCC-PAN2 cells (K-Ras G12R). The experiment in a line: Phospho-ERK1/2(THR202/TYR204) HTRF assay, TCC-PAN2. Type of test: cell-based. The note with it: 2 hours incubation.
Test [17] relates to Capan-2 cells (K-Ras G12V).
Test [18] deals with T1, K-Ras G12D (Homo sapiens, UniProt P01116, G12D). The experiment in a line: biochemical.
T1 sequence (P01116 1-169 isoform P01116-2 G12D): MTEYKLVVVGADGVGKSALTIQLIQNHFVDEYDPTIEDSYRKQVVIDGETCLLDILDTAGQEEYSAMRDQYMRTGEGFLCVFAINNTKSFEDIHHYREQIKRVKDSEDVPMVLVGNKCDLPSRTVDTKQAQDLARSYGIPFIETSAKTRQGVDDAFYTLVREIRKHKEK
In test [19] the target is T2, K-Ras G12V (Homo sapiens, UniProt P01116, G12V). Kind of test: SOS1 catalyzed nucleotide exchange assay (GDP form K-Ras), K-Ras G12V. Particulars: read-out: K-Ras G12V GDP Biochemical Activity (IC50).
T2 sequence (P01116 1-169 isoform P01116-2 G12V): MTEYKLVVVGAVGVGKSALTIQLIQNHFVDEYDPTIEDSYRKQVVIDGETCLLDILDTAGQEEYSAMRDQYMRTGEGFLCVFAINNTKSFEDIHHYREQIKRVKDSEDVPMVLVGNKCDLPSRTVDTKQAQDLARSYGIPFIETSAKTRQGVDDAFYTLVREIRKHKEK
Test [20] addresses T2, K-Ras G12V. Kind of test: biochemical.
In test [21] the target is T1, K-Ras G12D. Kind of test: biochemical. The source holds these as a separate data set.

A word on the IC50: it is the concentration at which inhibition is half-maximal.

Like-named read-outs stand apart in the source and are kept apart here.

Turning to `C#Cc1c(F)ccc2cc(O)cc(-c3ncc4c(N5CCCOCC5)nc(OC[C@@]56CCCN5C[C@H](OC)C6)nc4c3F)c12` [Compound 11, 5-ethynyl-6-fluoro-4-(8-fluoro-2-(((2R,7aS)-2-methoxytetrahydro-1H-pyrrolizin-7a(5H)-yl)methoxy)-4-(1,4-oxazepan-4-yl)pyrido[4,3-d]pyrimidin-7-yl)naphthalen-2-ol], the IC50 is 2.53 nM in [1]; 62.6 nM in [2]; 17.6 nM in [3]; 34.1 nM in test [4]; 19.5 nM in test [5]; over 1000 nM in test [6]. The 50% inhibitory concentration (IC50) in test [7] turned out to be 18.7 nM; in [8], 866 nM; in [9], 150 nM; in test [10], 380 nM; in test [11] it was 28.1 nM; in test [12] it was 40.6 nM. Also, the IC50 came out at 63.8 nM in [13]; 14.9 nM in test [14]; 56 nM in test [15]; 560 nM in test [16]; 311 nM in [17].

Consider `Oc1cc2c(c(-c3ncc4c(N5CCCOCC5)nc(OC[C@@]56CCCN5C[C@H](F)C6)nc4c3F)c1)N(CC(F)F)CCC2` [Compound 126, 1-(2,2-difluoroethyl)-8-(8-fluoro-2-(((2R,7aS)-2-fluorotetrahydro-1H-pyrrolizin-7a(5H)-yl)methoxy)-4-(1,4-oxazepan-4-yl)pyrido[4,3-d]pyrimidin-7-yl)-1,2,3,4-tetrahydroquinolin-6-ol], for which the IC50 in test [18] was 76.7 nM; in test [19] it was 84.6 nM; in test [20], over 1000 nM; in test [21] it was over 1000 nM.

Consider `C#Cc1c(F)ccc2cc(O)cc(-c3ncc4c(N5CCCOCC5)nc(OC[C@@]56CCCN5C[C@H](F)C6)nc4c3F)c12` [Compound 1, 5-ethynyl-6-fluoro-4-(8-fluoro-2-(((2R,7aS)-2-fluorotetrahydro-1H-pyrrolizin-7a(5H)-yl)methoxy)-4-(1,4-oxazepan-4-yl)pyrido[4,3-d]pyrimidin-7-yl)naphthalen-2-ol trifluoroacetic acid], for which the IC50 in test [1] came to 2.2 nM; in [3], 1.64 nM; in test [4], 4.68 nM; in [5], 1.34 nM; in test [6] it was 189 nM; in test [7], 2.74 nM. For the same compound, the IC50 in test [8] is 75.1 nM; in test [9], 20.6 nM; in test [10], 43.8 nM; in test [11], 8.23 nM; in test [12], 2.45 nM; in test [13], 7.04 nM. In addition, the IC50 in [14] stood at 0.974 nM; in test [15], 5.65 nM; in [16], 207 nM; in [17], 28.7 nM.

Consider `C#Cc1c(F)ccc2cc(O)cc(-c3nc(OCC)c4c(N5CCCOCC5)nc(OC[C@@]56CCCN5C[C@H](F)C6)nc4c3F)c12` [Compound 66, 4-(5-ethoxy-8-fluoro-2-(((2R,7aS)-2-fluorotetrahydro-1H-pyrrolizin-7a(5H)-yl)methoxy)-4-(1,4-oxazepan-4-yl)pyrido[4,3-d]pyrimidin-7-yl)-5-ethynyl-6-fluoronaphthalen-2-ol], for which the concentration for half-maximal inhibition (IC50) came out at 3.48 nM in test [1]; 26 nM in test [2]; 4.41 nM in [3]; 7.33 nM in test [4]; 7.81 nM in test [5]; 621 nM in test [6]. Moreover, the IC50 in test [7] turned out to be 2.74 nM; in [8], 53.2 nM; in test [9], 26.6 nM; in test [10] it was 50.3 nM; in test [11], 23.9 nM; in test [12] it was 3.86 nM. The IC50 in [13] came out at 12.8 nM; in test [14], 1.15 nM; in test [15], 10.4 nM; in [16] it was 121 nM; in test [17], 12.3 nM.

For the compound `C#Cc1c(C)ccc2cc(O)cc(-c3ncc4c(N5CCCOCC5)nc(OC[C@@]56CCCN5C[C@H](F)C6)nc4c3F)c12` [Compound 38, 5-ethynyl-4-(8-fluoro-2-(((2R,7aS)-2-fluorotetrahydro-1H-pyrrolizin-7a(5H)-yl)methoxy)-4-(1,4-oxazepan-4-yl)pyrido[4,3-d]pyrimidin-7-yl)-6-methylnaphthalen-2-ol trifluoroacetic acid], the IC50 was 2.23 nM in [1]; 13.6 nM in test [2]; 3.17 nM in test [3]; 13.1 nM in test [4]; 10.6 nM in test [5]; at least 1000 nM in test [6]. In addition, the IC50 in test [7] amounted to 7.72 nM; in [8] it was 159 nM; in [10], 77.3 nM; in [11], 10 nM; in test [12] it was 2.73 nM; in test [13], 14.9 nM. Besides, the half-maximal inhibitory concentration (IC50) was 2.16 nM in [14], 10.4 nM in [15], 218 nM in [16] and 57.8 nM in test [17].

`C#Cc1c(F)ccc2cc(O)cc(-c3nc(OC)c4c(N5CCCOCC5)nc(OC[C@@]56CCCN5C[C@H](F)C6)nc4c3F)c12` [Compound 65, 5-ethynyl-6-fluoro-4-(8-fluoro-2-(((2R,7aS)-2-fluorotetrahydro-1H-pyrrolizin-7a(5H)-yl)methoxy)-5-methoxy-4-(1,4-oxazepan-4-yl)pyrido[4,3-d]pyrimidin-7-yl)naphthalen-2-ol trifluoroacetic acid]: the concentration for half-maximal inhibition (IC50) in [1] is 1.24 nM; in test [2] it was 14.8 nM; in test [3], 2.94 nM; in test [4] it was 3.03 nM; in test [5], 3.71 nM; in test [6], 275 nM. The IC50 in [7] worked out at 4.31 nM; in [8] it was 37.2 nM; in [9] it was 25.9 nM; in [10] it was 29.2 nM; in test [11], 11 nM; in test [12], 1.61 nM. Besides, the IC50 in [13] is 7.82 nM; in test [14] it was 0.81 nM; in [15], 9.7 nM; in [16], 74.9 nM; in test [17], 7.15 nM.

As to `C#Cc1c(F)ccc2cc(O)cc(-c3ncc4c(N5CCCOC6CC65)nc(OC[C@@]56CCCN5C[C@H](F)C6)nc4c3F)c12` (stereo partly drawn) [Compound 7, 4-(4-(2-oxa-6-azabicyclo[5.1.0]octan-6-yl)-8-fluoro-2-(((2R,7aS)-2-fluorotetrahydro-1H-pyrrolizin-7a(5H)-yl)methoxy)pyrido[4,3-d]pyrimidin-7-yl)-5-ethynyl-6-fluoronaphthalen-2-ol], the IC50 in test [1] turned out to be 1.67 nM; in [2], 2.32 nM; in test [3] it was 0.919 nM; in test [4] it was 1.33 nM; in [5], 3.44 nM; in test [6], 165 nM. Moreover, the IC50 in [7] is 2.21 nM; in test [8], 39.8 nM; in [9] it was 5.2 nM; in test [10], 12.8 nM; in test [11] it was 3.46 nM; in test [12], 0.778 nM. Besides, the IC50 in [13] was 2.95 nM; in test [14], 0.82 nM; in [15], 3.17 nM; in [16], 31 nM; in [17] it was 7.34 nM.

Consider `C#Cc1c(F)ccc2cc(O)cc(-c3ncc4c(N5CCCO[C@@H]6C[C@@H]65)nc(OC[C@@]56CCCN5C[C@H](F)C6)nc4c3F)c12` (single isomer, unassigned) [Compound 7B], for which the IC50 is 0.881 nM in [1]; 2.57 nM in [2]; 0.701 nM in [3]; 0.858 nM in test [4]; 1 nM in test [5]; 41 nM in test [6]. The IC50 in [7] was 1.01 nM; in [8] it was 17.9 nM; in test [9], 2.52 nM; in test [10], 2.73 nM; in test [11], 3.7 nM; in test [12], 0.423 nM. Besides, the IC50 in [13] was 1.66 nM; in test [14], 0.255 nM; in [15], 0.807 nM; in test [16] it was 13.5 nM; in test [17], 2.91 nM.

The values above are taken from patent publication US20250019377A1 (JACOBIO PHARMACEUTICALS CO., LTD, priority 2021, published 2025).
